# Results from patent US12570675B2, “Boronic acid compounds” (LG CHEM, LTD., priority 2020, dated 2026).
# pIC50: −log10 of the molar value.
# Columns and labels:
# [1] = biological target: Proteasome caspase-like activity (S26 protein from RPMI8226 cells) (Homo sapiens (Human), UniProt P28072); experiment: Proteasome caspase-like activity inhibition (Z-Leu-Leu-Glu-AMC fluorogenic substrate, RPMI8226 cell extract); assay type: biochemical; conditions: S26 protein from RPMI8226 cell extract 2 ug/well, substrate 20 uM, 37° C., 90 minutes
# Sequence of Proteasome caspase-like activity (S26 protein from RPMI8226 cells) (P28072 whole entry): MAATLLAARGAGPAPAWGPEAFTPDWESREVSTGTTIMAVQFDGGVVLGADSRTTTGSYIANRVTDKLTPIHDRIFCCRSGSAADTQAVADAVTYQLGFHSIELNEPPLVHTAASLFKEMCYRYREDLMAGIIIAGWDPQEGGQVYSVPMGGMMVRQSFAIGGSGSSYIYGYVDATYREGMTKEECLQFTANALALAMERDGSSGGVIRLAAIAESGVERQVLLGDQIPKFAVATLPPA
# Summary of the method: (§1)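 Inhibition is measured in crude proteasome (S26) from RPMI8226 cells at 2 ug/well, using 20 uM substrate specific to each activity: Suc-LLVY-AMC for chymotrypsin-like, Z-LLE-AMC for caspase-like. Compounds span a dilution series from 10 uM.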
# [2] = biological target: Proteasome chymotrypsin-like activity (S26 protein from RPMI8226 cells) (Homo sapiens, UniProt P28074); assay type: biochemical; conditions: S26 protein from RPMI8226 cell extract 2 ug/well, substrate 20 uM, 37° C., 90 minutes; read-out: Proteasome chymotrypsin-like activity inhibition IC50
# Sequence of Proteasome chymotrypsin-like activity (S26 protein from RPMI8226 cells) (P28074 60-263 limits assumed): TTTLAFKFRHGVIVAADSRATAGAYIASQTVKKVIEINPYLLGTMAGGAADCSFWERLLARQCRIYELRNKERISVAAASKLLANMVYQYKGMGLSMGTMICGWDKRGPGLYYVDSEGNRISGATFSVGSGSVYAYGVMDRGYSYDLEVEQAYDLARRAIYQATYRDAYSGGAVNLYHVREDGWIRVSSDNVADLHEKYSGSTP
# Summary of the method: as §1
pIC50 [1],pIC50 [2],SMILES
< 6.30,> 8.00,"CC(C)C[C@H](NC(=O)C1(Cc2ccccc2)CC(CNC(=O)c2ccc(C(F)(F)F)nc2)=NO1)B(O)O (stereo partly drawn) [Example 179, ((1R)-1-(5-benzyl-3-((6-(trifluoromethyl)nicotinamido)methyl)-4,5-dihydroisoxazol-5-carboxamido)-3-methylbutyl)boronic acid]"
< 6.00,> 8.00,"CC(C)C[C@H](NC(=O)C1(Cc2ccccc2)CC(CNC(=O)c2cccc(C(F)(F)F)n2)=NO1)B(O)O (stereo partly drawn) [Example 186, ((1R)-1-(5-benzyl-3-((6-(trifluoromethyl)picolinamido)methyl)-4,5-dihydroisoxazol-5-carboxamido)-3-methylbutyl)boronic acid]"
< 6.30,> 8.00,"CC(C)C[C@H](NC(=O)C1(Cc2cccc(F)c2)CC(CNC(=O)c2nccc3ccccc23)=NO1)B(O)O (stereo partly drawn) [Example 187, ((1R)-1-(5-(3-fluorobenzyl)-3-((isoquinolin-1-carboxamido)methyl)-4,5-dihydroisoxazol-5-carboxamido)-3-methylbutyl)boronic acid]"
< 6.00,> 8.00,"CC(C)C[C@H](NC(=O)C1(Cc2ccccc2)CC(CNC(=O)c2cnn(C(C)C)c2)=NO1)B(O)O (stereo partly drawn) [Example 188, ((1R)-1-(5-benzyl-3-((1-isopropyl-1H-pyrazol-4-carboxamido)methyl)-4,5-dihydroisoxazol-5-carboxamido)-3-methylbutyl)boronic acid]"
< 6.00,> 8.00,"CC(C)C[C@H](NC(=O)C1(Cc2ccccc2)CC(CNC(=O)c2ccnn2C2CCCC2)=NO1)B(O)O (stereo partly drawn) [Example 189, ((1R)-1-(5-benzyl-3-((1-cyclopentyl-1H-pyrazol-5-carboxamido)methyl)-4,5-dihydroisoxazol-5-carboxamido)-3-methylbutyl)boronic acid]"
< 5.60,> 8.00,"Cc1cc(C(=O)NCC2=NOC(Cc3ccccc3)(C(=O)N[C@@H](CC(C)C)B(O)O)C2)n(C(C)C)n1 (stereo partly drawn) [Example 190, ((1R)-1-(5-benzyl-3-((1-isopropyl-3-methyl-1H-pyrazol-5-carboxamido)methyl)-4,5-dihydroisoxazol-5-carboxamido)-3-methylbutyl)boronic acid]"
< 6.00,> 8.00,"Cc1cc(C(=O)NCC2=NOC(Cc3ccccc3)(C(=O)N[C@@H](CC(C)C)B(O)O)C2)n(C2CCCC2)n1 (stereo partly drawn) [Example 196, ((1R)-1-(5-benzyl-3-((1-cyclopentyl-3-methyl-1H-pyrazol-5-carboxamido)methyl)-4,5-dihydroisoxazol-5-carboxamido)-3-methylbutyl)boronic acid]"
< 7.00,> 8.00,"CC(C)C[C@H](NC(=O)C1(Cc2ccccc2)CC(CNC(=O)c2n[nH]c3ccccc23)=NO1)B(O)O (stereo partly drawn) [Example 200, ((1R)-1-(3-((1H-indazol-3-carboxamido)methyl)-5-benzyl-4,5-dihydroisoxazol-5-carboxamido)-3-methylbutyl)boronic acid]"
< 6.60,> 8.00,"CC(C)C[C@H](NC(=O)C1(Cc2ccccc2)CC(CNC(=O)c2nn(C)c3ccccc23)=NO1)B(O)O (stereo partly drawn) [Example 201, ((1R)-1-(5-benzyl-3-((1-methyl-1H-indazol-3-carboxamido)methyl)-4,5-dihydroisoxazol-5-carboxamido)-3-methylbutyl)boronic acid]"
< 6.30,> 8.00,"CC(C)C[C@H](NC(=O)C1(Cc2ccccc2)CC(CNC(=O)c2cccc3c2cnn3C)=NO1)B(O)O (stereo partly drawn) [Example 204, ((1R)-1-(5-benzyl-3-((1-methyl-1H-indazol-4-carboxamido)methyl)-4,5-dihydroisoxazol-5-carboxamido)-3-methylbutyl)boronic acid]"
< 6.30,> 8.00,"CC(C)C[C@H](NC(=O)C1(Cc2ccccc2)CC(CNC(=O)c2cccc3c2cnn3C(C)C)=NO1)B(O)O (stereo partly drawn) [Example 205, ((1R)-1-(5-benzyl-3-((1-isopropyl-1H-indazol-4-carboxamido)methyl)-4,5-dihydroisoxazol-5-carboxamido)-3-methylbutyl)boronic acid]"
< 6.60,> 8.00,"CC(C)C[C@H](NC(=O)C1(Cc2ccccc2)CC(CNC(=O)c2cc(-c3ccccc3)nn2C(C)C)=NO1)B(O)O (stereo partly drawn) [Example 207, ((1R)-1-(5-benzyl-3-((1-isopropyl-3-phenyl-1H-pyrazol-5-carboxamido)methyl)-4,5-dihydroisoxazol-5-carboxamido)-3-methylbutyl)boronic acid]"
< 6.30,> 8.00,"CC(C)C[C@H](NC(=O)C1(Cc2ccccc2)CC(CNC(=O)c2ccnc3c2ccn3C(C)C)=NO1)B(O)O (stereo partly drawn) [Example 211, ((1R)-1-(5-benzyl-3-((1-isopropyl-1H-pyrrolo[2,3-b]pyridin-4-carboxamido)methyl)-4,5-dihydroisoxazol-5-carboxamido)-3-methylbutyl)boronic acid]"
< 7.00,> 8.00,"CC(C)C[C@H](NC(=O)C1(Cc2ccccc2)CC(CNC(=O)c2cnc3c(ccn3C(C)C)c2)=NO1)B(O)O (stereo partly drawn) [Example 212, ((1R)-1-(5-benzyl-3-((1-isopropyl-1H-pyrrolo[2,3-b]pyridin-5-carboxamido)methyl)-4,5-dihydroisoxazol-5-carboxamido)-3-methylbutyl)boronic acid]"
< 5.60,> 8.00,"CC(C)C[C@H](NC(=O)C1(Cc2ccccc2)CC(CNC(=O)c2cc(C(C)(C)C)nn2C(C)C)=NO1)B(O)O (stereo partly drawn) [Example 224, ((1R)-1-(5-benzyl-3-((3-(tert-butyl)-1-isopropyl-1H-pyrazol-5-carboxamido)methyl)-4,5-dihydroisoxazol-5-carboxamido)-3-methylbutyl)boronic acid]"
< 6.00,> 8.00,"Cc1cc(C(=O)NCC2=NOC(Cc3ccccc3)(C(=O)N[C@@H](CC(C)C)B(O)O)C2)n(-c2ccccc2)n1 (stereo partly drawn) [Example 246, ((1R)-1-(5-benzyl-3-((3-methyl-1-phenyl-1H-pyrazol-5-carboxamido)methyl)-4,5-dihydroisoxazol-5-carboxamido)-3-methylbutyl)boronic acid]"
< 6.00,> 8.00,"Cc1cc(C(=O)NCC2=NOC(Cc3ccccc3)(C(=O)N[C@@H](CC(C)C)B(O)O)C2)n(-c2ccc(F)cc2)n1 (stereo partly drawn) [Example 247, ((1R)-1-(5-benzyl-3-((1-(4-fluorophenyl)-3-methyl-1H-pyrazol-5-carboxamido)methyl)-4,5-dihydroisoxazol-5-carboxamido)-3-methylbutyl)boronic acid]"
< 5.60,> 8.00,"O=C(N[C@@H](Cc1ccccc1)B(O)O)C1(Cc2ccccc2)CC(COCc2ccccc2)=NO1 (stereo partly drawn) [Example 257, ((1R)-1-(5-benzyl-3-((benzyloxy)methyl)-4,5-dihydroisoxazol-5-carboxamido)-2-phenylethyl)boronic acid]"
< 6.00,> 8.00,"O=C(NCC1=NOC(Cc2ccccc2)(C(=O)N[C@@H](Cc2ccccc2)B(O)O)C1)c1ccccc1 (stereo partly drawn) [Example 292, ((1R)-1-(3-(benzamidomethyl)-5-benzyl-4,5-dihydroisoxazol-5-carboxamido)-2-phenylethyl)boronic acid]"
< 6.00,> 8.00,"CC(C)[C@H](NC(=O)C1(Cc2ccccc2)CC(CNC(=O)c2ccccc2)=NO1)B(O)O (stereo partly drawn) [Example 294, ((1R)-1-(3-(benzamidomethyl)-5-benzyl-4,5-dihydroisoxazol-5-carboxamido)-2-methylpropyl)boronic acid]"

SMILES,pIC50 [1],pIC50 [2]
"CC(C)C[C@H](NC(=O)C1(Cc2ccccc2)CC(CNC(=O)c2nn(C(C)C)c3ccccc23)=NO1)B(O)O (stereo partly drawn) [Example 202, ((1R)-1-(5-benzyl-3-((1-isopropyl-1H-indazol-3-carboxamido)methyl)-4,5-dihydroisoxazol-5-carboxamido)-3-methylbutyl)boronic acid]",< 6.30,> 8.00
CC(C)C[C@H](NC(=O)C1CC(COCc2ccccc2)=NO1)B(O)O (some centres unmarked) [Example 252],< 6.30,> 7.00
CC(C)C[C@H](NC(=O)C1(Cc2ccccc2)CC(COCc2ccccc2)=NO1)B(O)O (some centres unmarked) [Example 256],< 6.00,> 8.00
CC(C)C[C@H](NC(=O)C1(Cc2ccccc2)CC(CNC(=O)c2ccccc2)=NO1)B(O)O (some centres unmarked) [Example 291],< 6.60,> 8.00
CC(C)C[C@H](NC(=O)C1(Cc2ccccc2)CC(CNC(=O)c2cccc(Cl)n2)=NO1)B(O)O (some centres unmarked) [Example 308],< 6.30,> 8.00
